Experimental findings from ChEMBL document CHEMBL1777797, “Macrocyclic lactams as potent Hsp90 inhibitors with excellent tumor exposure and extended biomarker activity” (Bioorg Med Chem Lett, 2011) are described below.

The nature of data set [1]: Inhibition of HSP90 by fluorescence polarization assay.
Data set [2] addresses Heat shock protein HSP90 (Homo sapiens, UniProt P07900+P08238). Kind of data set: Inhibition of HSP90 in human HCT-116 cells expressing V-Src-firefly luciferase fusion protein after 3 to 6 hrs. The class given is cell-based.
The nature of data set [3]: Half life in rat liver microsomes. The class given is ADME, Microsome.
Data set [4] is described as follows: Solubility of the compound. Format: physicochemical.
The test system of data set [5] is A-375. Kind of data set: Antiproliferative activity against human A375 cells.
Data set [6] concerns BT-474. As to the kind of experiment: Antiproliferative activity against human BT474 cells.
Data set [7] can be described thus: Antiproliferative activity against human WM266.4 cells. The conditions noted are these: wm 266-4.
Data set [8] has as its system A549. As to the kind of experiment: Antiproliferative activity against human A549 cells.
The test system of data set [9] is MDA-MB-361. Kind of data set: Antiproliferative activity against human MDA-MB-361 cells.
The subject of data set [10] is DU-145. As to the kind of experiment: Antiproliferative activity against human DU145 cells.
Data set [11] concerns T98G. Kind of data set: Antiproliferative activity against human T98G cells.
The nature of data set [12]: Antiproliferative activity against human U87MG cells. The conditions noted are these: u-87mg atcc.
The subject of data set [13] is KB. Kind of data set: Antiproliferative activity against human KB cells.
Data set [14] can be described thus: Antiproliferative activity against human KB 8.5 cells.
Data set [15] is described as follows: Antiproliferative activity against P-gp overexpressing human KBV1 cells. Particulars: kb-v1.
Data set [16] in a line: Plasma concentration human MDA-MB-361 xenograft in vivo model at 50 mg/kg, po measured at 6 hrs post dose. Format: ADME, organism-based. Further details: dose 50 mg/kg, route oral.
Data set [17] is described as follows: Drug level in tumor of human MDA-MB-361 xenograft in vivo model at 50 mg/kg, po measured at 6 hrs post dose. Format: ADME, organism-based, Neoplasm. The conditions noted are these: read-out: Drug uptake. Also noted: dose 50 mg/kg, route oral. (In general: Xenograft models place foreign cells or tissue in a host animal.)
Data set [18] can be described thus: Plasma concentration in human MDA-MB-361 xenograft in vivo model at 50 mg/kg, po measured at 24 hrs post dose. Format: ADME, organism-based. Also noted: dose 50 mg/kg, route oral.
The nature of data set [19]: Drug level in tumor of human MDA-MB-361 xenograft in vivo model at 50 mg/kg, po measured at 24 hrs post dose. The class given is ADME, organism-based, Neoplasm. Further details: dose 50 mg/kg, route oral. Particulars: read-out: Drug uptake.
The test system of data set [20] is NCI-H1975. As to the kind of experiment: Antiproliferative activity against human NCI-H1975 cells.
Data set [21] relates to HCT-116. Kind of data set: Antiproliferative activity against human HCT116 cells. The class given is functional, cell-based.

In brackets after ≈: the same amount, converted by molar mass.

As a reminder, the IC50 is the midpoint of a concentration-inhibition curve. High values mean lower potency, low ones higher potency. In data set [1], `Cc1c2c(n3c1CC(=O)NCCCNc1cc-3ccc1C(N)=O)CC(C)(C)CC2=O` displayed an IC50 of 6830 nM.
By half-life is commonly meant the time needed for the level to fall by half in the phase considered. A lower half-life goes with rapid decline. As usually defined, the solubility is the concentration that dissolves in the medium under given conditions. Consider `Cc1c2c(n3c1CCCNC(=O)[C@H](C)Nc1cc-3ccc1C(N)=O)CC(C)(C)CC2=O`, for which the IC50 stood at 82 nM in data set [1]; 79 nM in [2]; 23 nM in data set [5]; 23 nM in data set [6]; 92 nM in [7]; 23 nM in data set [8]. For the same compound, the IC50 in data set [9] came to 111 nM; in data set [10], 45 nM; in data set [11], 42 nM; in data set [12] it was 80 nM; in data set [13] it was 22 nM; in [14] it was 49 nM. The IC50 in data set [15] is over 1000 nM; in [20] it was 47 nM. In data set [3], this compound returned a half-life of over 30 min. For the same compound, the solubility in data set [4] is over 100 µg/mL. The concentration at 6 h in [16] was 146 ng/mL; in data set [17], 2130 ng/g. The concentration at 24 h is 8 ng/mL in [18] and 1270 ng/g in [19].
A word on the EC50: it is the concentration that produces a half-maximal response. A lower EC50 goes with an effect from little substance. Regarding `Cc1c2c(n3c1CC(=O)N(C)CC[C@H](C)Nc1cc-3ccc1C(N)=O)CC(C)(C)CC2=O`, the IC50 in data set [1] came out at 156 nM; in [2] it was 160 nM. For the same compound, the EC50 in data set [21] was determined as 247 nM. In addition, the half-life in data set [3] was over 30 min. Further, the solubility in [4] is over 100 µg/mL.
On the same counts, the results for `Cc1c2c(n3c1CCCN(C(=O)[C@@H](C)N)[C@H](C)CNc1cc-3ccc1C(N)=O)CC(C)(C)CC2=O` are 555 nM, over 5000 nM, over 5000 nM, over 30 min and over 100 µg/mL.
`Cc1c2c(n3c1CCCNC(=O)C[C@H](C)Nc1cc-3ccc1C(N)=O)CC(C)(C)CC2=O`: the IC50 in [1] turned out to be 337 nM; in data set [2], 1842 nM. Further, it took 3330 nM to reach a half-maximal effect in data set [21] (EC50).
`CC(=O)NCCN1CC[C@H](C)Nc2cc(ccc2C(N)=O)-n2c(c(C)c3c2CC(C)(C)CC3=O)CC1=O`: the IC50 is 407 nM in [1] and over 5000 nM in [2]. The EC50 in data set [21] was over 5000 nM. Further, the half-life in data set [3] was over 30 min. This compound also registered a solubility in data set [4] of over 100 µg/mL.
On to `Cc1c2c(n3c1CCCN(CCN)C(=O)[C@H](C)Nc1cc-3ccc1C(N)=O)CC(C)(C)CC2=O`, for which the IC50 in data set [1] was 1180 nM; in data set [2], over 20000 nM. The compound also came in with an EC50 in data set [21] of over 20000 nM. The solubility in [4] is over 100 µg/mL.
`COCCN1CC[C@H](C)Nc2cc(ccc2C(N)=O)-n2c(c(C)c3c2CC(C)(C)CC3=O)CC1=O`: the IC50 came to 222 nM in data set [1] and 108 nM in data set [2]. In data set [21], this compound gave a 50% effective concentration (EC50) of 359 nM. The compound also displayed a half-life in [3] of over 30 min. This compound also yielded a solubility in data set [4] of over 100 µg/mL.
The like results for `Cc1c2c(n3c1CCCN(C(=O)CN(C)C)[C@H](C)CNc1cc-3ccc1C(N)=O)CC(C)(C)CC2=O` were, in that order, over 5000 nM, over 5000 nM, 3260 nM, over 30 min and over 100 µg/mL.
For `Cc1c2c(n3c1CCCNC(=O)[C@@H](C)Nc1cc-3ccc1C(N)=O)CC(C)(C)CC2=O`, the figures for the IC50 in [1] and in data set [2] were 268 nM and 123 nM, respectively. Besides, a half-maximal response in data set [21] (EC50) required 175 nM.
For `CC(=O)NCCN1CCCc2c(C)c3c(n2-c2ccc(C(N)=O)c(c2)N[C@@H](C)C1=O)CC(C)(C)CC3=O`, the IC50 stood at 240 nM in data set [1] and 15771 nM in data set [2]. This compound returned an EC50 in data set [21] of 17900 nM. The half-life in [3] was over 30 min. In [4], this compound yielded a solubility of over 100 µg/mL.
`Cc1c2c(n3c1CCCN(C)C(=O)[C@H](C)Nc1cc-3ccc1C(N)=O)CC(C)(C)CC2=O` registered an IC50 in [2] of 60 nM. Further, in data set [21], the EC50 is 80 nM. This compound also returned a half-life in [3] of over 30 min. This compound also gave a solubility in [4] of 34 µg/mL (≈ 77.9 µM).
For `CC(=O)N1CCc2c(C)c3c(n2-c2ccc(C(N)=O)c(c2)N[C@@H](C)CC1)CC(C)(C)CC3=O`, the IC50 in [1] worked out at 111 nM; in data set [2], 108 nM.
Consider `Cc1c2c(n3c1CCN(C(=O)CN)CC[C@H](C)Nc1cc-3ccc1C(N)=O)CC(C)(C)CC2=O`, for which the 50% inhibitory concentration (IC50) is 90 nM in data set [1] and 917 nM in data set [2]. The compound also gave a half-maximal effective concentration (EC50) in [21] of 1010 nM.
In the case of `Cc1c2c(n3c1CC(=O)N(CCN(C)C)CC[C@H](C)Nc1cc-3ccc1C(N)=O)CC(C)(C)CC2=O`, the IC50 in [1] turned out to be 191 nM; in [2] it was 249 nM. Further, a half-maximal response in data set [21] (EC50) required 330 nM. This compound registered a half-life in data set [3] of over 30 min. Besides, the solubility in [4] was over 100 µg/mL.
`Cc1c2c(n3c1CCCNC[C@H](C)Nc1cc-3ccc1C(N)=O)CC(C)(C)CC2=O` yielded a solubility in [4] of over 100 µg/mL.
`Cc1c2c(n3c1CCCN[C@H](C)CNc1cc-3ccc1C(N)=O)CC(C)(C)CC2=O`: the values for the IC50 in data set [1] and in [2] were 91 nM and 47 nM, respectively. The compound also had an EC50 in data set [21] of 43 nM. In data set [3], this compound returned a half-life of over 30 min. In [4], this compound displayed a solubility of over 100 µg/mL.
For `Cc1c2c(n3c1CC(=O)N(C(C)C)CC[C@H](C)Nc1cc-3ccc1C(N)=O)CC(C)(C)CC2=O`, the IC50 stood at 608 nM in data set [1] and 278 nM in data set [2]. Besides, the EC50 in data set [21] is 865 nM. For the same compound, the half-life in data set [3] was 12 min. The solubility in data set [4] is over 100 µg/mL.
As to `CC(=O)N1CCCc2c(C)c3c(n2-c2ccc(C(N)=O)c(c2)N[C@@H](C)C1)CC(C)(C)CC3=O`, the IC50 came to 219 nM in data set [1] and 111 nM in data set [2]. For the same compound, in data set [21], a half-maximal response (EC50) required 194 nM. Besides, the half-life in [3] was 11 min. The same compound registered a solubility in data set [4] of 69 µg/mL (≈ 153 µM).
The like results for `Cc1c2c(n3c1CCN(C(=O)CCN)CC[C@H](C)Nc1cc-3ccc1C(N)=O)CC(C)(C)CC2=O` were, in that order, 200 nM, 6183 nM, 4890 nM, over 30 min and over 100 µg/mL.
On the same counts, the results for `CC(=O)NCC(=O)N1CCc2c(C)c3c(n2-c2ccc(C(N)=O)c(c2)N[C@@H](C)CC1)CC(C)(C)CC3=O` are 140 nM, 674 nM, 1550 nM, over 30 min and 5 µg/mL (≈ 9.85 µM).
Compound `Cc1c2c(n3c1CCN(C(=O)[C@H](C)N)CC[C@H](C)Nc1cc-3ccc1C(N)=O)CC(C)(C)CC2=O` registered a solubility in data set [4] of over 100 µg/mL.
`Cc1c2c(n3c1CCN(C(=O)[C@@H](C)N)CC[C@H](C)Nc1cc-3ccc1C(N)=O)CC(C)(C)CC2=O`: the IC50 in data set [1] was 119 nM. In data set [4], this compound returned a solubility of over 100 µg/mL.
In the case of `CC(=O)N1CCCc2c(C)c3c(n2-c2ccc(C(N)=O)c(c2)NC[C@H]1C)CC(C)(C)CC3=O`, the IC50 in data set [1] was 953 nM; in data set [2], 1159 nM. In addition, the EC50 in [21] turned out to be 1900 nM. In data set [3], this compound had a half-life of 12 min. This compound displayed a solubility in data set [4] of over 100 µg/mL.
On the same counts, the results for `Cc1c2c(n3c1CC(=O)NCC[C@H](C)Nc1cc-3ccc1C(N)=O)CC(C)(C)CC2=O` are 214 nM, 522 nM, 815 nM, over 30 min and over 100 µg/mL.
On the same counts, the results for `Cc1c2c(n3c1CCN(C(=O)CN(C)C)CC[C@H](C)Nc1cc-3ccc1C(N)=O)CC(C)(C)CC2=O` are 140 nM, 109 nM, 168 nM, 3 min and over 100 µg/mL.
